The record followed here is patent US20100119599A1 (ARCHER PHARMACEUTICALS, INC., priority 2006, published 2010).

One assay concerns Aβ1-40. The experiment in a line: Measurement of Aβ1-40 in culture medium of 7W WT APP751 CHO cells by ELISA. The assay is classed as cell-based, Chinese hamster. The following applies: for activity at 5 µM: Cricetulus griseus, Table 1, 5 μM test compound, CHO cells stably transfected with human APP751, culture medium, ELISA, control DMSO, 0 = no detectable amount; for Aβ1-40 (% of control): CHO cells that overexpress APP751, zero = below the detection limit of the assay.

A further assay relates to Aβ1-42. Kind of assay: Measurement of Aβ1-42 in culture medium of 7W WT APP751 CHO cells by ELISA. The assay is classed as cell-based, Chinese hamster. To be noted: for activity at 5 µM: Cricetulus griseus, Table 1, 5 μM test compound, CHO cells stably transfected with human APP751, culture medium, ELISA, control DMSO, 0 = no detectable amount, read-out: Aβ1-42 (% of control); for Aβ1-42 (% of control): CHO cells that overexpress APP751, zero = below the detection limit of the assay. In general terms: ELISA stands for enzyme-linked immunosorbent assay.
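Also: 5 µM test compound but RI-coded compounds at 10 µM for 24 hours.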

In the case of `CC1=C(C#N)C(c2ccc(Cl)cc2)C2=C(CC(C)(C)CC2=O)N1` (stereo not drawn) [ST013410, 4-(4-chlorophenyl)-2,7,7-trimethyl-5-oxo-1,4,6,7,8-pentahydroquinoline-3-carbonitrile], the values for the activity at 5 µM in the assay on Aβ1-40 and in the assay on Aβ1-42 were 22% and 26%, respectively.
The like results for `CCCCOC(=O)C1=C(C)NC2=C(C(=O)CCC2)C1c1cccc(Cl)c1` (stereo not drawn) [ST013428, butyl 4-(3-chlorophenyl)-2-methyl-5-oxo-1,4,6,7,8-pentahydroquinoline-3-carboxylate] were, in that order, 25.1% and 40.9%.
In the case of `COc1ccc(C2C(C(=O)OC3CCCCC3)=C(C)NC3=C2C(=O)CCC3)cc1Br` (stereo not drawn) [ST013429, cyclohexyl 4-(3-bromo-4-methoxyphenyl)-2-methyl-5-oxo-1,4,6,7,8-pentahydroquinoline-3-carboxylate], the activity at 5 µM with Aβ1-40 is 31.9%; in the assay with Aβ1-42, 45.4%.
For `CCOCCOC(=O)C1=C(C)NC2=C(C(=O)CCC2)C1c1ccc(OC(C)=O)cc1` (stereo not drawn) [ST013435, 4-{3-[(2-ethoxyethyl)oxycarbonyl]-2-methyl-5-oxo-4-1,4,6,7,8-pentahydroquinolyl}phenyl acetate], in that order: 64.7% and 70.1%.
For `CC1=C(C(=O)OC2CCCCC2)C(c2ccc(C)cc2)C2=C(CC(c3ccccc3)CC2=O)N1` (stereo not drawn) [ST013438, cyclohexyl 2-methyl-4-(4-methylphenyl)-5-oxo-7-phenyl-1,4,6,7,8-pentahydroquinoline-3-carboxylate], in that order: 31.5% and 93.5%.
Consider `CC1=C(C(=O)OC(C)C)C(c2cccc(Cl)c2Cl)C2=C(CC(c3ccccc3)CC2=O)N1` (stereo not drawn) [ST013439, methylethyl 4-(2,3-dichlorophenyl)-2-methyl-5-oxo-7-phenyl-1,4,6,7,8-pentahydroquinoline-3-carboxylate], for which the activity at 5 µM in the assay with Aβ1-40 was found to be 19.7%; with Aβ1-42, 80.3%.
As to `COC(=O)CSC1=C(C#N)C(c2cccs2)C(C(C)=O)=C(C)N1` (stereo not drawn) [ST014038, methyl 2-(5-acetyl-3-cyano-6-methyl-4-(2-thienyl)-2-1,4-dihydropyridylthio)acetate], the “Aβ1-40 (% of control)” value with Aβ1-40 is recorded as 29.98 % of control. For the same compound, the “Aβ1-42 (% of control)” value with Aβ1-42 is 21.82 % of control.
For `COC(=O)C1=C(C)NC(SCC(=O)c2cccs2)=C(C#N)C1c1ccc2c(c1)OCCO2` (stereo not drawn) [ST014052, methyl 4-(2H,3H-benzo[3,4-e]1,4-dioxan-6-yl)-5-cyano-2-methyl-6-(2-oxo-2-(2-thienyl)ethylthio)-1,4-dihydropyridine-3-carboxylate], in that order: 49 % of control and 74.69 % of control.
As to `N#CC1=C(N)NC(S)=C(C#N)C1c1cccc(Br)c1` (stereo not drawn) [ST014065, 6-amino-4-(3-bromophenyl)-2-sulfanyl-1,4-dihydropyridine-3,5-dicarbonitrile], the “Aβ1-40 (% of control)” value in the assay on Aβ1-40 is 18.6 % of control. For the same compound, the “Aβ1-42 (% of control)” value in the assay on Aβ1-42 is on record as 30.01 % of control.
`CC1(C)CC(=O)C2=C(C1)N(Cc1ccccc1)C(N)=C(C#N)C21CCOCC1` [ST014138, 2-amino-7,7-dimethyl-5-oxo-1-benzylspiro[1,4,6,7,8-pentahydroquinoline-4,4′-2′ H-3′,4,5′,6′-tetrahydropyran]-3-carbonitrile]: the activity at 5 µM in the assay with Aβ1-40 amounted to 64.1%; with Aβ1-42, 65.3%.
As to `N#CC1=C(N)Nc2c(c(=O)oc3ccccc23)C1c1ccc(Cl)cc1` (stereo not drawn) [ST014144, 2-amino-4-(4-chlorophenyl)-5-oxo-1,4-dihydrochromeno[4,3-b]pyridine-3-carbonitrile], the “Aβ1-40 (% of control)” value in the assay on Aβ1-40 was 66.08 % of control. In addition, the “Aβ1-42 (% of control)” value in the assay on Aβ1-42 is reported as 66.02 % of control.
For `N#CC1=C(N)Nc2c(c(=O)oc3ccccc23)C1c1ccc(Br)cc1` (stereo not drawn) [ST014147, 2-amino-4-(4-bromophenyl)-5-oxo-1,4-dihydrochromeno[4,3-b]pyridine-3-carbonitrile], in that order: 82.09 % of control and 68.55 % of control.
